The conditions of data set [1]: cited from earlier work.
For data set [2] the following is noted: human, in vivo, 30 mg.
The conditions of data set [3]: cited from earlier work. This is another data set of the same source.
Data set [4] in a line: Everolimus single-dose pharmacokinetics. The format is in vivo, patients. The following applies: for AUCinf % extrapolated: single dose everolimus 30 mg.
Data set [5] deals with metastatic RCC. The conditions noted are these: metastatic RCC previously treated with VEGFR tyrosine kinase inhibitor; ref [6]; cited from earlier work.
For data set [6], the system named is metastatic RCC. The conditions noted are these: front line metastatic RCC setting; ref [1],[2]; cited from earlier work.
The nature of data set [7]: Sunitinib multiple-dose pharmacokinetics. The data set is classed as in vivo, patients. The following applies: for AUC / CL/F / Cmax / half-life: human, oral; for AUC / CL/F / Cmax / half-life / Cmin / Tmin: plasma, multiple dose (dose 14), sunitinib 50 mg daily with everolimus 30 mg weekly; for AUC: AUCtau, dosing interval 24 hours; for CL/F: dose/AUCtau.

The term bioavailability denotes dose-corrected exposure relative to a reference, in per cent. Usually Tmax stands for the time from dosing to the highest level. The term AUC(0-inf) denotes total exposure, with the tail of the curve extrapolated. The low end stands for less exposure, the high end for more exposure. For orientation: CL/F means clearance divided by bioavailability, as obtained after extravascular dosing. One may read the Cmax as the highest concentration seen after dosing. As usually defined, the half-life is the time needed for the level to fall by half in the phase considered. In the case of `CO[C@H]1C[C@@H]2CC[C@@H](C)[C@@](O)(O2)C(=O)C(=O)N2CCCC[C@H]2C(=O)O[C@H]([C@H](C)C[C@@H]2CC[C@@H](OCCO)[C@H](OC)C2)CC(=O)[C@H](C)/C=C(\C)[C@@H](O)[C@@H](OC)C(=O)[C@H](C)C[C@H](C)/C=C/C=C/C=C/1C` [Everolimus], in data set [1], the eliminated in bile is given as 98%. In addition, the “AUCtau relative to AUCinf after the first dose” value in data set [2] is listed as “almost double”. The bioavailability in data set [3] was 16%. The Tmax in data set [4] (human, plasma, po) stood at 2 h. This compound gave an AUC(0-inf) in data set [4] (human, plasma, po, AUCinf, subject 1002, after first oral dose of everolimus 30 mg, with sunitinib 50 mg daily, plasma) of 1560 ng·h/mL. Besides, the CL/F in data set [4] (human, plasma, po, CL/F, subject 1002, after first oral dose of everolimus 30 mg, with sunitinib 50 mg daily, plasma) is 3.34 mL/min/kg. The highest level in data set [4] (human, plasma, po, Cmax, subject 1002, after first oral dose of everolimus 30 mg, with sunitinib 50 mg daily, plasma) (Cmax) was 82.3 ng/mL. In data set [4] (human, plasma, po, t1/2, subject 1002, after first oral dose of everolimus 30 mg, with sunitinib 50 mg daily, plasma), this compound gave a half-life of 25.7 h. Also, the AUCinf % extrapolated is 48.7% in data set [4] (subject 1002) and 35.2% in data set [4] (subject 1003). In the data set with metastatic RCC [5], the “progression-free survival (PFS) over placebo” value is on record as “significant improvement”.

In the case of `Cc1ccc(Nc2nccc(N(C)c3ccc4c(C)n(C)nc4c3)n2)cc1S(N)(=O)=O` [pazopanib], the “progression free survival (PFS)” value in the data set on metastatic RCC [6] is on record as “less than a year”.

As usually defined, the AUC is concentration integrated over time. High values mean more exposure, low ones less exposure. For the compound `CCN(CC)CCNC(=O)c1c(C)[nH]c(/C=C2\C(=O)Nc3ccc(F)cc32)c1C` [Sunitinib, Sunitinib malate], in data set [7] (subject 1001), the area under the curve (AUC) came out at 1860 ng·h/mL, the CL/F is 7.13 mL/min/kg, the peak level (Cmax) was 83.1 ng/mL and the Cmin is 59.4 ng/mL. The Tmin in data set [7] (subject 1001) is given as 2 h. In data set [7] (subject 1002), this compound gave an AUC of 2770 ng·h/mL, a CL/F of 3.12 mL/min/kg, a Cmax of 142 ng/mL and a Cmin of 80.3 ng/mL. The Tmin in data set [7] (subject 1002) is reported as 0 h. In data set [7] (subject 1003), this compound gave an AUC of 2300 ng·h/mL, a CL/F of 5.34 mL/min/kg and a peak concentration (Cmax) of 106 ng/mL. This compound had a half-life in data set [7] (t1/2, subject 1002) of 33 h. For the same compound, the half-life in data set [7] (t1/2, subject 1003) was 85.5 h. Further, the “AUCtau compared with sunitinib monotherapy” value in data set [7] (same dose of sunitinib (50 mg/d), compared with Faivre, et al) is listed as “substantially higher”. Also, the “progression free survival (PFS)” value in the data set on metastatic RCC [6] is listed as “less than a year”.

(Values after article PMC4754968 (Clinical genitourinary cancer, 2014).)
